Source: PubChem BioAssay (NCI)
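48-hour exposure; five concentrations; linearly interpolated endpoints. GI50 marks 50% less growth. Definition used: TGI = concentration required for complete inhibition of growth.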

How the values were obtained:
Experiment in all cases: inhibition of tumour cell growth, NCI panel, 48 h
[1] = system: MCF7 breast
[2] = system: HCT-15 colon
[3] = system: MDA-MB-435
[4] = system: SF-295 CNS
[5] = system: ACHN renal
[6] = system: OVCAR-4 ovarian
[7] = system: MOLT-4 leukemia
[8] = system: SN12C renal
[9] = system: NCI-H522 lung
[10] = system: SNB-19 CNS
[11] = system: CAKI-1 renal
[12] = system: SK-MEL-28 melanoma
[13] = system: SK-OV-3 ovarian
[14] = system: HCC-2998 colon
[15] = system: HS 578T breast
[16] = system: NCI-H23 lung
[17] = system: NCI-H226 lung
[18] = system: BT-549 breast
[19] = system: SR leukemia
[20] = system: RXF 393 renal
[21] = system: 786-0 renal
[22] = system: UO-31 renal
[23] = system: A549 NSCLC
[24] = system: HOP-92 NSCLC
[25] = system: SF-268 CNS
[26] = system: TK-10 renal
[27] = system: U251 CNS
[28] = system: M14 melanoma
[29] = system: MALME-3M melanoma
[30] = system: K-562 leukemia
[31] = system: IGROV1 ovarian
[32] = system: CCRF-CEM leukemia
[33] = system: SK-MEL-5 melanoma
[34] = system: PC-3 prostate
[35] = system: HT29 colon
[36] = system: LOX IMVI melanoma
[37] = system: EKVX NSCLC
[38] = system: NCI/ADR-RES ovarian
[39] = system: KM12 colon
[40] = system: SW-620 colon
[41] = system: A498 renal
[42] = system: OVCAR-8 ovarian
[43] = system: HOP-62 NSCLC
[44] = system: T-47D breast
[45] = system: COLO 205 colon
[46] = system: UACC-62 melanoma
[47] = system: SNB-75 CNS
[48] = system: MDA-MB-231 breast
[49] = system: DU-145 prostate
[50] = system: OVCAR-3 ovarian
[51] = system: HL-60(TB) leukemia
[52] = system: SF-539 CNS
[53] = system: HCT-116 colon
[54] = system: SK-MEL-2 melanoma
[55] = system: RPMI-8226 leukemia
[56] = system: OVCAR-5 ovarian
[57] = system: NCI-H460 lung

Question: With `Cc1ccc(Cl)cc1-c1nc(N)nc(Nc2ccc(Br)cc2)n1` as the compound, how does the GI50 [1] read?
Answer: Its GI50 is 0.0456 µM.

Question: What about the TGI [1] of the same compound?
Answer: Its TGI is > 100 µM.

Question: What about the GI50 [2] of the same compound?
Answer: Its GI50 is 0.0535 µM.

Question: And the TGI [2]?
Answer: The TGI was > 100 µM.

Question: What about the GI50 [3] of the same compound?
Answer: The GI50 was 0.0222 µM.

Question: And the TGI [3]?
Answer: The TGI was 0.0598 µM.

Question: What about the GI50 [4] of the same compound?
Answer: Its GI50 is 0.041 µM.

Question: And the TGI [4]?
Answer: The TGI was > 100 µM.

Question: And the GI50 [5]?
Answer: The GI50 was 0.0911 µM.

Question: What about the TGI [5] of the same compound?
Answer: Its TGI is > 100 µM.

Question: What about the GI50 [6] of the same compound?
Answer: Its GI50 is 0.274 µM.

Question: What about the TGI [6] of the same compound?
Answer: The TGI was > 100 µM.

Question: What about the GI50 [7] of the same compound?
Answer: Its GI50 is 0.0883 µM.

Question: What about the TGI [7] of the same compound?
Answer: The TGI was > 22.1 µM.

Question: And the GI50 [8]?
Answer: The GI50 was 0.0628 µM.

Question: What about the TGI [8] of the same compound?
Answer: The TGI was > 100 µM.

Question: And the GI50 [9]?
Answer: The GI50 was 0.0332 µM.

Question: What about the GI50 [10] of the same compound?
Answer: Its GI50 is 0.0832 µM.

Question: And the TGI [10]?
Answer: The TGI was > 100 µM.

Question: And the GI50 [11]?
Answer: The GI50 was 19.2 µM.

Question: And the TGI [11]?
Answer: The TGI was > 100 µM.

Question: And the GI50 [12]?
Answer: The GI50 was 0.126 µM.

Question: What about the TGI [12] of the same compound?
Answer: The TGI was > 100 µM.

Question: And the GI50 [13]?
Answer: The GI50 was 0.0517 µM.

Question: What about the TGI [13] of the same compound?
Answer: The TGI was 21 µM.

Question: And the GI50 [14]?
Answer: The GI50 was 0.16 µM.

Question: And the GI50 [15]?
Answer: The GI50 was 0.0455 µM.

Question: And the TGI [15]?
Answer: The TGI was > 48.5 µM.

Question: And the GI50 [16]?
Answer: Its GI50 is 0.0739 µM.

Question: What about the GI50 [17] of the same compound?
Answer: The GI50 was 1.74 µM.

Question: What about the GI50 [18] of the same compound?
Answer: Its GI50 is 0.0581 µM.

Question: And the GI50 [19]?
Answer: Its GI50 is 0.0361 µM.

Question: What about the TGI [19] of the same compound?
Answer: Its TGI is > 100 µM.

Question: What about the GI50 [20] of the same compound?
Answer: Its GI50 is 0.0309 µM.

Question: What about the TGI [20] of the same compound?
Answer: The TGI was 3.99 µM.

Question: What about the GI50 [21] of the same compound?
Answer: Its GI50 is 0.0596 µM.

Question: What about the TGI [21] of the same compound?
Answer: The TGI was > 100 µM.

Question: And the GI50 [22]?
Answer: The GI50 was 0.0733 µM.

Question: What about the TGI [22] of the same compound?
Answer: The TGI was > 100 µM.

Question: What about the GI50 [23] of the same compound?
Answer: The GI50 was 0.0663 µM.

Question: What about the TGI [23] of the same compound?
Answer: The TGI was > 100 µM.

Question: What about the GI50 [24] of the same compound?
Answer: The GI50 was 2.28 µM.

Question: What about the TGI [24] of the same compound?
Answer: Its TGI is > 100 µM.

Question: What about the TGI [25] of the same compound?
Answer: Its TGI is > 100 µM.

Question: And the GI50 [26]?
Answer: Its GI50 is 3.29 µM.

Question: What about the TGI [26] of the same compound?
Answer: Its TGI is > 100 µM.

Question: And the GI50 [27]?
Answer: Its GI50 is 0.0461 µM.

Question: And the TGI [27]?
Answer: The TGI was 8.72 µM.

Question: What about the GI50 [28] of the same compound?
Answer: Its GI50 is 0.0414 µM.

Question: And the TGI [28]?
Answer: Its TGI is > 100 µM.

Question: What about the GI50 [29] of the same compound?
Answer: The GI50 was 0.0703 µM.

Question: What about the TGI [29] of the same compound?
Answer: The TGI was > 100 µM.

Question: And the GI50 [30]?
Answer: The GI50 was 0.0422 µM.

Question: And the TGI [30]?
Answer: The TGI was > 100 µM.

Question: And the GI50 [31]?
Answer: The GI50 was 0.15 µM.

Question: What about the TGI [31] of the same compound?
Answer: The TGI was > 100 µM.

Question: And the GI50 [32]?
Answer: Its GI50 is 0.0444 µM.

Question: And the GI50 [33]?
Answer: Its GI50 is 0.0411 µM.

Question: And the TGI [33]?
Answer: Its TGI is > 100 µM.

Question: What about the GI50 [34] of the same compound?
Answer: The GI50 was 0.0538 µM.

Question: What about the TGI [34] of the same compound?
Answer: The TGI was > 100 µM.

Question: And the GI50 [35]?
Answer: The GI50 was 0.0365 µM.

Question: And the GI50 [36]?
Answer: Its GI50 is 0.0687 µM.

Question: What about the TGI [36] of the same compound?
Answer: Its TGI is > 100 µM.

Question: What about the GI50 [37] of the same compound?
Answer: Its GI50 is 0.667 µM.

Question: What about the TGI [37] of the same compound?
Answer: Its TGI is > 100 µM.

Question: And the GI50 [38]?
Answer: The GI50 was 0.0347 µM.

Question: And the TGI [38]?
Answer: The TGI was 0.208 µM.

Question: What about the GI50 [39] of the same compound?
Answer: The GI50 was 0.0503 µM.

Question: What about the TGI [39] of the same compound?
Answer: The TGI was > 100 µM.

Question: What about the GI50 [40] of the same compound?
Answer: Its GI50 is 0.0408 µM.

Question: And the TGI [40]?
Answer: Its TGI is > 100 µM.

Question: And the GI50 [41]?
Answer: The GI50 was 0.0326 µM.

Question: And the TGI [41]?
Answer: Its TGI is 2.47 µM.

Question: And the GI50 [42]?
Answer: The GI50 was 0.0745 µM.

Question: What about the TGI [42] of the same compound?
Answer: Its TGI is > 100 µM.

Question: What about the GI50 [43] of the same compound?
Answer: The GI50 was 0.0723 µM.

Question: And the TGI [43]?
Answer: Its TGI is > 100 µM.

Question: What about the GI50 [44] of the same compound?
Answer: The GI50 was 22.6 µM.

Question: And the TGI [44]?
Answer: Its TGI is > 100 µM.

Question: What about the GI50 [45] of the same compound?
Answer: Its GI50 is 0.0454 µM.

Question: What about the TGI [45] of the same compound?
Answer: The TGI was 0.254 µM.

Question: What about the GI50 [46] of the same compound?
Answer: The GI50 was 0.0594 µM.

Question: And the TGI [46]?
Answer: Its TGI is > 100 µM.

Question: And the GI50 [47]?
Answer: The GI50 was 0.029 µM.

Question: What about the TGI [47] of the same compound?
Answer: The TGI was > 100 µM.

Question: What about the GI50 [48] of the same compound?
Answer: Its GI50 is 0.139 µM.

Question: What about the TGI [48] of the same compound?
Answer: Its TGI is > 100 µM.

Question: What about the GI50 [49] of the same compound?
Answer: Its GI50 is 0.069 µM.

Question: What about the TGI [49] of the same compound?
Answer: The TGI was > 56.5 µM.

Question: What about the GI50 [50] of the same compound?
Answer: Its GI50 is 0.0317 µM.

Question: What about the GI50 [51] of the same compound?
Answer: Its GI50 is 0.0305 µM.

Question: And the GI50 [52]?
Answer: Its GI50 is 0.0406 µM.

Question: And the TGI [52]?
Answer: Its TGI is > 29 µM.

Question: What about the GI50 [53] of the same compound?
Answer: Its GI50 is 0.0435 µM.

Question: And the TGI [53]?
Answer: The TGI was > 100 µM.

Question: And the GI50 [54]?
Answer: Its GI50 is 0.0692 µM.

Question: And the TGI [54]?
Answer: Its TGI is > 100 µM.

Question: And the GI50 [55]?
Answer: Its GI50 is 0.0851 µM.

Question: And the TGI [55]?
Answer: Its TGI is > 100 µM.

Question: And the GI50 [56]?
Answer: Its GI50 is 0.358 µM.

Question: And the TGI [56]?
Answer: Its TGI is > 100 µM.

Question: And the GI50 [57]?
Answer: Its GI50 is 0.0385 µM.

Question: And the TGI [57]?
Answer: Its TGI is > 38.7 µM.
